Source: patent EP4682145A1, “BENZOHETEROCYCLIC COMPOUND, AND PREPARATION METHOD THEREFOR AND USE THEREOF” (Cascade Pharmaceuticals, Inc., priority 2023, dated 2024)

Tests used:
[1] = molecular target: T1, human FFAR1 (GPR40) (Homo sapiens, UniProt O14842); experiment: NFAT-RE-based reporter gene activity assay (Dual-Glo luciferase) for GPR40 agonistic activity in co-transfected HEK293T cells; type: cell-based; conditions: 4-hour treatment; for Efficacy (%): class symbols
T1 construct: Flag; expressed in transfected cells; host or cells: HEK293T
Procedure, shortened: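 HEK293T cells co-transfected with human FFAR1, NFAT-RE firefly luciferase and TK-Renilla plasmids; 24 h later treated 4 h with 10 half-log compound dilutions from 1 µM. Firefly/Renilla ratio normalised to DMSO; EC50 from four-parameter fit.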

[2] = tested on: normal C57BL6/J mice; experiment: Oral glucose tolerance test (OGTT) in normal C57BL6/J mice; type: in vivo; conditions: 1 mg/kg gavage, single dose; for AUC 0-120 minutes: blood glucose AUC
Procedure: Eighteen normal male C57BL6/J mice (8-9 weeks old) were selected and randomly divided into 3 groups based on body weight and blood glucose levels, with 6 mice in each group. On the day of the OGTT, fasting was initiated at 8:30 AM. At 11:30 AM, drug interventions were administered via gavage (vehicle control, compound 14, 1 mg/kg, and compound 169, 1 mg/kg). At 1:30 PM, glucose (2 g/kg) was administered via gavage, while the blank control group received the vehicle control orally (2% DMSO + 15% solutol + 83% DDW solution) at a dosing volume of 10 mL/kg. Blood glucose measurements during the OGTT were taken at the following time points: 0, 15, 30, 60, 90, and 120 minutes after glucose administration.
Blood glucose levels were measured at 0, 15, 30, 60, and 120 minutes after glucose administration. The area under the curve (AUC) for blood glucose over 120 minutes was calculated. [formula]
Note: BG0, BG15, BG30, BG60, BG90, and BG120 represent the blood glucose levels at 0, 15, 30, 60, 90, and 120 minutes after glucose administration, respectively.
Data were expressed as mean ± standard deviation. One-way ANOVA was employed for statistical analysis, with p < 0.05 considered statistically significant.

[3] = tested on: normal male C57BL6/J mice; experiment: In vivo hypoglycemia risk assay in fasted normal C57BL6/J mice; conditions: mouse, in vivo, po, 10 mg/kg
Procedure: The blank control group was orally administered with the vehicle control (2% DMO + 15% solutol + 83% DDW solution), with a dosing volume of 10 mL/kg. […] […] Data were expressed as mean ± standard deviation. One-way ANOVA was employed for statistical analysis, with p < 0.05 considered statistically significant.

[4] = Pharmacokinetic evaluation in ICR mice (intravenous and gavage); type: in vivo
Procedure: The bioavailability and pharmacokinetic behavior of the compounds were evaluated in mice. 6 male ICR mice with similar body weights were selected, among which 3 mice were administered a single gavage dose of 10 mg/kg, and the other 3 mice were intravenously administered a single dose of 5 mg/kg. Blood samples were collected at 5 minutes (intravenous administration), 15 minutes, 30 minutes, 1 hour, 2 hours, 4 hours, and 7 hours after administration. The plasma samples were analyzed for concentration by LCMS/MS, and the pharmacokinetic parameters of the compounds were analyzed using the PKSolver free tool and non-compartmental analysis (NCA) software.
Experimental animals: Each compound test group included 6 healthy male ICR mice, weighing 18-25 g, purchased from Charles River, which were randomly divided into 2 groups with 3 mice each.
Preparation of formulations: A certain amount of the compound was weighed and added to 2% DMSO + 15% Solutol + 83% physiological saline to form a clear solution.
Dosage: ICR mice were fasted overnight and administered the compound at a dose of 10 mg/kg via gavage or 5 mg/kg via intravenous injection. The dosing volumes for gavage and intravenous administration were 10 mL/kg and 5 mL/kg, respectively. Uniform feeding was conducted 2 hours after administration.
Sample collection: Approximately 30 µL of blood was collected from the great saphenous vein at 5 minutes (intravenous administration), 15 minutes, 30 minutes, 1 hour, 2 hours, 4 hours, and 7 hours after administration. The blood was placed into commercially available tubes containing K2-EDTA. The blood samples were then centrifuged at 4°C and 4600 rpm for 5 minutes to obtain plasma samples. All plasma samples were rapidly frozen on dry ice and maintained at -70°C until LCMS/MS analysis was performed.
Sample preparation: 10 µL of plasma sample was aspirated and precipitated with a methanol solution containing 50 nmol/L of α-naphthoflavone (internal standard). The mixture was thoroughly mixed and centrifuged at 4°C and 14000 rpm for 5 minutes. Then, 75 µL of the supernatant was mixed with 75 µL of methanol for LCMS/MS analysis.

[5] = Tissue distribution evaluation in ICR mice; type: in vivo; conditions: oral gavage 5 mg/kg, 1 hour after administration
Procedure: Experimental protocol: The tissue distribution characteristics of the compounds were evaluated in mice. 2 male ICR mice with similar body weights were selected, and the compound was administered via oral gavage at a dose of 5 mg/kg. The animals were sacrificed at 1 hour, and blood, liver, and heart were collected. After sample processing, the concentration of the compounds in each matrix was analyzed by LCMS/MS, and the average values of each group were calculated to evaluate the tissue/plasma ratio of the compounds.
Experimental animals: 2 healthy male ICR mice were purchased from Charles River.
Preparation of formulations: A certain amount of the compound was weighed and added to 2% DMSO + 15% Solutol + 83% distilled water to form a clear solution.
Dosage: ICR mice were fasted overnight and administered the compound via oral gavage at a dose of 5 mg/kg. The volume of oral gavage administration was 10 mL/kg. Uniform feeding was conducted 2 hours after administration.
Sample collection: Animals were sacrificed 1 hour after administration, and blood, liver, and heart tissues were collected. The blood was placed into commercially available tubes containing K2-EDTA. The blood samples were then centrifuged at 4°C and 4600 rpm for 5 minutes to obtain plasma samples. All plasma and tissue samples were rapidly frozen on dry ice and maintained at -70°C until LCMS/MS analysis was performed.
Sample preparation: 50 µL of the plasma sample was aspirated, precipitated with methanol, thoroughly mixed, and centrifuged at 4°C and 14000 rpm for 5 minutes. Then, 75 µL of the supernatant was mixed with 75 µL of methanol for LCMS/MS analysis. Tissue samples were homogenized using methanol. After homogenization, the mixture was centrifuged at 14,000 rpm for 5 minutes at 4°C. Subsequently, 75 µL of the supernatant was mixed with 75 µL of methanol for LCMS/MS analysis.

[6] = Intravenous Administration (5 mg/kg)
[7] = mouse, plasma, po, Gavage Administration (10 mg/kg)

T1 sequence (O14842 whole entry): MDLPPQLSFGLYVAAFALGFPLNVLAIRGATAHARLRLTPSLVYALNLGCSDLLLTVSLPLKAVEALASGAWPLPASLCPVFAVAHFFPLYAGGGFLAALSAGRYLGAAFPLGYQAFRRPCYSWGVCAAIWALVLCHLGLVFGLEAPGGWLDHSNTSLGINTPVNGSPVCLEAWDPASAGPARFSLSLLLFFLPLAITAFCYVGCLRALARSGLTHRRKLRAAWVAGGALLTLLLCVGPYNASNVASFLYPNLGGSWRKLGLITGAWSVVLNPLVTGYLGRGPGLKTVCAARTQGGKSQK

COc1cccc(N2CCC(c3oc4cc([C@@H](CC(=O)O)C5CC5)ccc4c3-c3ccc(C(C)(C)C)cc3)CC2)c1 [Compound 14]
EC50 [1]: 0.01 to 0.1 µM
Efficacy (%) [1]: ††† (Efficacy (%) > 150)
Blood Glucose ([2]; 0 minutes after glucose (2 g/kg)): 7.58 ± 0.59 mmol/L
Blood Glucose ([2]; 15 minutes after glucose (2 g/kg)): 11.08 ± 2.04 mmol/L
Blood Glucose ([2]; 30 minutes after glucose (2 g/kg)): 9.17 ± 1.37 mmol/L
Blood Glucose ([2]; 60 minutes after glucose (2 g/kg)): 7.6 ± 1.34 mmol/L
Blood Glucose ([2]; 90 minutes after glucose (2 g/kg)): 6.52 ± 2 mmol/L
Blood Glucose ([2]; 120 minutes after glucose (2 g/kg)): 5.87 ± 1.13 mmol/L
AUC 0-120 minutes ([2]; 1 mg/kg): 941±62.00
AUC 0-120 minutes ([2]; listed as compound 14, 1 mg/kg): significantly reduced

COc1ccc(Cl)cc1C(=O)NCCc1ccc(S(=O)(=O)NC(=O)NC2CCCCC2)cc1 [Glibenclamide, reference compound]
AUC0-120 minutes (mmol*min) [3]: 492±50.30** mmol*min

COc1ccc(F)c(N2CCC(c3oc4cc(C(CC(=O)O)C5CC5)ccc4c3-c3ccc(C(C)(C)C)cc3)CC2)c1 (stereo not drawn) [Compound 168]
EC50 [1]: 0.1 to 0.5 µM
Efficacy (%) [1]: ††† (Efficacy (%) > 150)
CL_obs [4, 6]: 0.126 L/h/kg
Vss_obs [4, 6]: 0.494 L/kg
half-life ([4]; mouse, plasma, Intravenous Administration (5 mg/kg)): 3.9 h
Cmax [4, 7]: 3.47 µg/mL
Tmax [4, 7]: 3 h
AUC(0-t) at 7 h ([4]; mouse, plasma, po, Gavage Administration (10 mg/kg), read-out: AUC0-7 h): 15.4 µg·h/mL
bioavailability ([4]; mouse, plasma, po, gavage 10 mg/kg versus intravenous 5 mg/kg): 24%
Plasma Concentration (ng/mL) or Tissue Concentration (ng/g): Blood [5]: 936 ng/mL
Plasma Concentration (ng/mL) or Tissue Concentration (ng/g): Heart [5]: 485 ng/g
Plasma Concentration (ng/mL) or Tissue Concentration (ng/g): Liver [5]: 1923 ng/g
Plasma Concentration (ng/mL) or Tissue Concentration (ng/g): Plasma [5]: 1550 ng/mL

COc1ccc(F)c(N2CCC(c3oc4cc(C(CC(=O)O)C5CC5)ccc4c3-c3cccc(C(C)(C)C)c3)CC2)c1 (stereo not drawn) [Compound 165]
EC50 [1]: 0.1 to 0.5 µM
Efficacy (%) [1]: ††† (Efficacy (%) > 150)
Plasma Concentration (ng/mL) or Tissue Concentration (ng/g): Blood [5]: 842 ng/mL
Plasma Concentration (ng/mL) or Tissue Concentration (ng/g): Heart [5]: 418 ng/g
Plasma Concentration (ng/mL) or Tissue Concentration (ng/g): Liver [5]: 1548 ng/g
Plasma Concentration (ng/mL) or Tissue Concentration (ng/g): Plasma [5]: 1290 ng/mL
